# From patent publication US6677368B2, “4-aryl substituted indolinones” (Sugen, Inc., priority 2000, dated 2004)
# Legend:
# FGFR1 = FGFR1 (Homo sapiens, UniProt P11362); test: FGFR1 bioassay (ELISA, in vitro kinase activity); assay type: biochemical; details: purified GST-FGFR1, poly(Glu-Tyr) substrate
# Experimental: This assay is used to measure the in vitro kinase activity of FGF1-R in an ELISA assay.
# 1. Costar 96-well ELISA plates (Corning Catalog #3369).
# 2. Poly(Glu-Tyr) (Sigma Catalog #P0275).
# 4. 50 mM Hepes Buffer Solution.
# 5. Blocking Buffer (5% BSA/PBS).
# 6. Purified GST-FGFR1 (SUGEN, Inc.)
# 7. Kinase Dilution Buffer. Mix 500 μl 1M Hepes (GIBCO), 20 μl 5% BSA/PBS, 10 μl 100 mM sodium orthovanadate and 50 μl 5M NaCl.
# 9. ATP/MnCl2 phosphorylation mix: mix 20 μL ATP, 400 μL 1M MnCl2 and 9.56 ml dH2O.
# 10. NUNC 96-well V bottom polypropylene plates (Applied Scientific Catalog #AS-72092).
# 12. 0.05% TBST Add 500 μL TWEEN to 1 liter TBS.
# 13. Rabbit polyclonal anti-phosphotyrosine serum (SUGEN, Inc.).
# 14. Goat anti-rabbit IgG peroxidase conjugate (Biosource, Catalog #ALI0404).
# 1. Coat Costar 96 well ELISA plates with 1 μg per well Poly(Glu-Tyr) in 100 μl PBS. Store overnight at 4° C.
# 2. Wash coated plates once with PBS.
# 3. Add 150 μL of 5%BSA/PBS Blocking Buffer to each well. Incubate, with shaking, for 1 hr at room temperature.
# 4. Wash plate 2× with PBS, then once with 50 mM Hepes. Pat plates on a paper towel to remove excess liquid and bubbles.
# 5. Add 25 μL of 0.4 mM test compound in 4% DMSO or 4% DMSO alone (controls) to plate.
# 6. Dilute purified GST-FGFR1 in Kinase Dilution Buffer (5 ng kinase/50 μl KDB/well).
# 7. Add 50 μL of diluted kinase to each well.
# 8. Start kinase reaction by adding 25 μl/well of freshly prepared ATP/Mn++ (0.4 ml 1M MnCl2, 40 μL 10 mM ATP, 9.56 ml dH2O), freshly prepared).
# 9. Stop reaction with 25 μL of 0.5M EDTA.
# 10. Wash plate 4× with fresh TBST.
# 11. Make up Antibody Dilution Buffer: For 50 ml, mix 5 ml of 5% BSA, 250 μl of 5% milk and 50 μl of 100 mM sodium vanadate, bring to final volume with 0.05% TBST.
# 12. Add 100 μl per well of anti-phosphotyrosine (1:10000 dilution in ADB). Incubate, with shaking for 1 hr. at room temperature.
# 14. Add 100 μl per well of Biosource Goat anti-rabbit IgG peroxidase conjugate (1:6000 dilution in ADB). Incubate, with shaking for 1 hr. at room temperature.
# 15. Wash as in step 10 and then with PBS to remove bubbles and excess TWEEN.
# 16. Add 100 μl of ABTS/H2O2 solution to each well.
# 17. Incubate, with shaking, for 10 to 20 minutes. Remove any bubbles.
# 18. Read assay on Dynatech MR7000 ELISA reader: test filter at 410 nM, reference filter at 630 nM.
# EGFR = EGFR (Homo sapiens, UniProt P00533); test: EGFR kinase inhibition; assay type: biochemical
# EGFR, sequence (P00533 25-1210, species assumed): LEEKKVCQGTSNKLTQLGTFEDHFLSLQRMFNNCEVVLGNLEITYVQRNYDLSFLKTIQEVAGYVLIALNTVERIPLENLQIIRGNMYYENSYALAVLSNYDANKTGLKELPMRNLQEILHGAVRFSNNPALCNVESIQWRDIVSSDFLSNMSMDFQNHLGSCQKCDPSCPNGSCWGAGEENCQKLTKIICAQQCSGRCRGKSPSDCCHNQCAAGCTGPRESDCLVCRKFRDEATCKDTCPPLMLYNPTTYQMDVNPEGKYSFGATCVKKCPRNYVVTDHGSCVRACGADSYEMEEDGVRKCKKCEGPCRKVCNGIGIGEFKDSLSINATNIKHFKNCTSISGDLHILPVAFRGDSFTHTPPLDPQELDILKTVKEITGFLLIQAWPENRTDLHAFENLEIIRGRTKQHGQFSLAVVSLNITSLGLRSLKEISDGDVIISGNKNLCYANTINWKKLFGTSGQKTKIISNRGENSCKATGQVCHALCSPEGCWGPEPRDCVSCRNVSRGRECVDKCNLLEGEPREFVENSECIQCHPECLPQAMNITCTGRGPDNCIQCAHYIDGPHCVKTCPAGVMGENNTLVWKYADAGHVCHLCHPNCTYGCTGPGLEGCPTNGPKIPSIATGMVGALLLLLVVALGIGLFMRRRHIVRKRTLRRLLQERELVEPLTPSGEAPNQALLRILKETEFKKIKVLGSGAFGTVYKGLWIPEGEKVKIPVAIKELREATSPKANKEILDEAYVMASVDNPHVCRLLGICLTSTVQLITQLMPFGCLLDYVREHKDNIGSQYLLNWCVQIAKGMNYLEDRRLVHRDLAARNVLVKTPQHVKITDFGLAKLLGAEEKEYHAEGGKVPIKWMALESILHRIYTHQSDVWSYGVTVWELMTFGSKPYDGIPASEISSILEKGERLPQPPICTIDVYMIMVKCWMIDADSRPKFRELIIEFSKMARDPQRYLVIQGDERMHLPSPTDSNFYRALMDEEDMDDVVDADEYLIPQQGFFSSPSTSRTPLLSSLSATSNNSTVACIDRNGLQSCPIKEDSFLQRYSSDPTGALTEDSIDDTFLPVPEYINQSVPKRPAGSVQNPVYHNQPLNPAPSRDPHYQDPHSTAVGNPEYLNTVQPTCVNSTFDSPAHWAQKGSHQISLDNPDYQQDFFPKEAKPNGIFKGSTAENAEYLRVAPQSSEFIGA
# FGFR1, sequence (P11362 22-822, species assumed): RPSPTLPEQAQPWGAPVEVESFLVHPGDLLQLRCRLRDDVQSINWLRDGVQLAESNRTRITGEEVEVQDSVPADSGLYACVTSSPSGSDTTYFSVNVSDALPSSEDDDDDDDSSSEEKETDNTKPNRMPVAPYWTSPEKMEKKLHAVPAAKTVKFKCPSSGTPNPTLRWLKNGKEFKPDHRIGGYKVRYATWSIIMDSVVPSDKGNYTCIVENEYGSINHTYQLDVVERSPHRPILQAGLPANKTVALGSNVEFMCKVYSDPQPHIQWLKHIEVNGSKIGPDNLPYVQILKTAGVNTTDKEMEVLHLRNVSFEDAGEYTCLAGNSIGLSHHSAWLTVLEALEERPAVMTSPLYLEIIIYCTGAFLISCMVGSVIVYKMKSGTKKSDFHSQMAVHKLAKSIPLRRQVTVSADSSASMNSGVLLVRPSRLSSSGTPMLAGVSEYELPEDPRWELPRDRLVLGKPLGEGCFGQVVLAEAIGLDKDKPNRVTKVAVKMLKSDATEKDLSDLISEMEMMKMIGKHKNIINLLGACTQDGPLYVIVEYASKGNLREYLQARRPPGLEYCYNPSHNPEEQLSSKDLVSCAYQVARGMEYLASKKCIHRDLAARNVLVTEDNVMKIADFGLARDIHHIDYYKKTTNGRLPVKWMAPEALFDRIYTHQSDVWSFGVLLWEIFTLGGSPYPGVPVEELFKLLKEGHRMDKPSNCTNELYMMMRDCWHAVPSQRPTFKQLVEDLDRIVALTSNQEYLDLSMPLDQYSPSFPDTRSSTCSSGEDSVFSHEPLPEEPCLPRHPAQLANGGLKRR
Structure (SMILES),IC50 (FGFR1) [nM],IC50 (EGFR) [nM]
"Cc1[nH]c(/C=C2\C(=O)Nc3cccc(-c4ccc(F)cc4)c32)c(C)c1C(=O)NCCN1CCCC1 [Example 6, 5-[4-(4-Fluoro-phenyl)-2-oxo-1,2-dihydro-indol-3-ylidenemethyl]-2,4-dimethyl-1H-pyrrole-3-carboxylic Acid (2-Pyrrolidin-1-yl-ethyl)-amide]",57,16200
"COc1ccc(-c2cccc3c2/C(=C/c2[nH]c(C)c(C(=O)NCCN4CCCC4)c2C)C(=O)N3)cc1 [Example 38, 5-[4-(4-Methoxy-phenyl)-2-oxo-1,2-dihydro-indol-3-ylidenemethyl]-2,4-dimethyl-1H-pyrrole-3-carboxylic Acid (2-Pyrrolidin-1-yl-ethyl)-amide]",80,16400
"CCN(CC)CCNC(=O)c1c(C)[nH]c(/C=C2\C(=O)Nc3cccc(-c4cccc(OC)c4)c32)c1C [Example 46, 5-[4-(3-Methoxy-phenyl)-2-oxo-1,2-dihydro-indol-3-ylidenemethyl]-2,4-dimethyl-1H-pyrrole-3-carboxylic Acid (2-Diethylamino-ethyl)-amide]",22,–
"COc1cccc(-c2cccc3c2/C(=C/c2[nH]c(C)c(C(=O)NCCN(C(C)C)C(C)C)c2C)C(=O)N3)c1 [Example 52, 5-[4-(3-Methoxy-phenyl)-2-oxo-1,2-dihydro-indol-3-ylidenemethyl]-2,4-dimethyl-1H-pyrrole-3-carboxylic Acid (2-Diisopropylamino-ethyl)-amide]",35,–
Cc1[nH]c(/C=C2\C(=O)Nc3cccc(-c4ccc(Br)cc4)c32)c(C)c1C(=O)N1CCN(C)CC1 [Example 53],1150,–
"Cc1[nH]c(/C=C2\C(=O)Nc3cccc(-c4ccc(Br)cc4)c32)c(C)c1C(=O)N1C[C@@H](C)N[C@@H](C)C1 [Example 57, 4-(4-Bromo-phenyl)-3-[4-[(cis)-3,5-dimethyl-piperazine-1-carbonyl)-3,5-dimethyl-1H-pyrrol-2-ylmethylene]-1,3-dihydro-indol-2-one]",260,–
"Cc1[nH]c(/C=C2\C(=O)Nc3cccc(-c4ccc(Br)cc4)c32)c(C)c1C(=O)NCCN(C(C)C)C(C)C [Example 60, 5-[4-(4-Bromo-phenyl)-2-oxo-1,2-dihydro-indol-3-ylidenemethyl]-2,4-dimethyl-1H-pyrrole-3-carboxylic Acid (2-Diisopropylamino-ethyl)-amide]",150,7010
"CCN(CC)CCNC(=O)c1c(C)[nH]c(/C=C2\C(=O)Nc3cccc(-c4cccc(Br)c4)c32)c1C [Example 63, 5-[4-(3-Bromo-phenyl)-2-oxo-1,2-dihydro-indol-3-ylidenemethyl]-2,4-dimethyl-1H-pyrrole-3-carboxylic Acid (2-Diethylamino-ethyl)-amide]",240,15000
"Cc1[nH]c(/C=C2\C(=O)Nc3cccc(-c4ccccc4F)c32)c(C)c1C(=O)N1CCN(C)CC1 [Example 93, 3-[3,5-Dimethyl-4-(4-methyl-piperazine-1-carbonyl)-1H-pyrrol-2-ylmethylene]-4-(2-fluoro-phenyl)-1,3-dihydro-indol-2-one]",83,–
"Cc1cc(C(=O)NCCn2ccnn2)c(/C=C2\C(=O)Nc3cccc(-c4ccccc4F)c32)[nH]1 [Example 99, 2-[4-(2-Fluoro-phenyl)-2-oxo-1,2-dihydro-indol-3-ylidenemethyl]-5-methyl-1H-pyrrole-3-carboxylic Acid (2-[1,2,3]Triazol-1-yl-ethyl)-amide]",610,–
"Cc1[nH]c(/C=C2\C(=O)Nc3cccc(-c4cccc(C(F)(F)F)c4)c32)c(C)c1C(=O)N1CCN(C)CC1 [Example 104, 3-[3,5-Dimethyl-4-(4-methyl-piperazine-1-carbonyl)-H-pyrrol-2-ylmethylene]-4-(3-trifluoromethyl-phenyl)-1,3-dihydro-indol-2-one]",300,–
"Cc1cc(C(=O)NCCN2CCCC2)c(/C=C2\C(=O)Nc3cccc(-c4ccc(F)c(Cl)c4)c32)[nH]1 [Example 119, 2-[4-(3-Chloro-4-fluoro-phenyl)-2-oxo-1,2-dihydro-indol-3-ylidenemethyl]-5-methyl-1H-pyrrole-3-carboxylic Acid (2-Pyrrolidin-1-yl-ethyl)-amide]",240,–

# The next lines start with the values.
IC50 (FGFR1) [nM],IC50 (EGFR) [nM],Structure (SMILES)
< 9.1,13100,"CCN(CC)CCNC(=O)c1c(C)[nH]c(/C=C2\C(=O)Nc3cccc(-c4cccc(F)c4)c32)c1C [Example 13, 5-[4-(3-Fluoro-phenyl)-2-oxo-1,2-dihydro-indol-3-ylidenemethyl]-2,4-dimethyl-1H-pyrrole-3-carboxylic Acid (2-Diethylamino-ethyl)-amide]"
1190,9330,"CCOC(=O)c1c(C)[nH]c(/C=C2\C(=O)Nc3cccc(-c4cccc(F)c4)c32)c1CCCN1CCN(C)CC1 [Example 18, 5-[4-(3-Fluoro-phenyl)-2-oxo-1,2-dihydro-indol-3-ylidenemethyl]-2-methyl-4-[3-(4-methyl-piperazin-1-yl)-propyl]-1H-pyrrole-3-carboxylic Acid Ethyl Ester]"
57,15900,"Cc1[nH]c(/C=C2\C(=O)Nc3cccc(-c4ccc(Cl)cc4)c32)c(C)c1C(=O)NCCN1CCCC1 [Example 22, 5-[4-(4-Chloro-phenyl)-2-oxo-1,2-dihydro-indol-3-ylidenemethyl]-2,4-dimethyl-1H-pyrrole-3-carboxylic Acid (2-Pyrrolidin-1-yl-ethyl)-amide]"
29,12900,"CCN(CC)CCNC(=O)c1c(C)[nH]c(/C=C2\C(=O)Nc3cccc(-c4cccc(Cl)c4)c32)c1C [Example 29, 5-[4-(3-Chloro-phenyl)-2-oxo-1,2-dihydro-indol-3-ylidenemethyl]-2,4-dimethyl-1H-pyrrole-3-carboxylic Acid (2-Diethylamino-ethyl)-amide]"
600,–,"COc1cccc(-c2cccc3c2/C(=C/c2[nH]c(C)c(C(=O)NCCn4ccnn4)c2C)C(=O)N3)c1 [Example 48, 5-[4-(3-Methoxy-phenyl)-2-oxo-1,2-dihydro-indol-3-ylidenemethyl]-2,4-dimethyl-1H-pyrrole-3-carboxylic Acid (2-[1,2,3]Triazol-1-yl-ethyl)-amide]"
250,–,"Cc1cc(C(=O)NCCN2CCCC2)c(/C=C2\C(=O)Nc3cccc(-c4ccc(Br)cc4)c32)[nH]1 [Example 58, 2-[4-(4-Bromo-phenyl)-2-oxo-1,2-dihydro-indol-3-ylidenemethyl]-5-methyl-1H-pyrrole-3-carboxylic Acid (2-Pyrrolidin-1-yl-ethyl)-amide]"
21,–,"CCN(CC)CCNC(=O)c1c[nH]c(/C=C2\C(=O)Nc3cccc(-c4ccc(Br)cc4)c32)c1C [Example 61, 5-[4-(4-Bromo-phenyl)-2-oxo-1,2-dihydro-indol-3-ylidenemethyl]-4-methyl-1H-pyrrole-3-carboxylic Acid (2-Diethylamino-ethyl)-amide]"
520,–,"CCN(CC)CCNC(=O)c1c(C)[nH]c(/C=C2\C(=O)Nc3cccc(-c4ccc(OC(F)(F)F)cc4)c32)c1C [Example 140, 2,4-Dimethyl-5-[2-oxo-4-(4-trifluoromethoxy-phenyl)-1,2-dihydro-indol-3-ylidenemethyl]-1H-pyrrole-3-carboxylic Acid (2-Diethylamino-ethyl)-amide]"
